Results: US9060515B2, “Heterocyclic urea compounds” (BIOTA EUROPE LTD, priority 2011, dated 2015)
Converted amounts (≈) assume the structure as drawn.

Legend:
Type in all cases: cell-based
S. aureus (ATCC 29213) = assay: Antibacterial susceptibility testing (MIC, broth microdilution or agar dilution), S. aureus; conditions: Staphylococcus aureus, ATCC29213; read-out: S. aureus (ATCC 29213) minimal inhibitory concentration (MIC)
How it was run: (§1)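 MICs by CLSI (M7-A7) broth microdilution or agar dilution, against reference ATCC strains as listed.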

E. faecalis (ATCC 29212) = assay: Antibacterial susceptibility testing (MIC, broth microdilution or agar dilution), E. faecalis; conditions: Enterococcus faecalis, ATCC29212; read-out: E. faecalis (ATCC 29212) minimal inhibitory concentration (MIC)
How it was run: as §1

S. pyogenes (ATCC 51339) = assay: Antibacterial susceptibility testing (MIC, broth microdilution or agar dilution), S. pyogenes; conditions: Streptococcus pyogenes, ATCC51339; read-out: S. pyogenes (ATCC 51339) minimal inhibitory concentration (MIC)
How it was run: as §1

[1] = tested on: H. influenzae (ATCC 49247); assay: Antibacterial susceptibility testing (MIC, broth microdilution or agar dilution), H. influenzae; conditions: Haemophilus influenzae, ATCC49247; read-out: H. influenzae (ATCC 49247) minimal inhibitory concentration (MIC)
Experimental: Compounds of the invention were tested for antimicrobial activity by susceptibility testing in liquid or on solid media. MICs for compounds against each strain were determined by the broth microdilution or agar dilution method according to the guidelines of the Clinical Laboratories and Standards Institute, formerly the National Committee for Clinical Laboratory Standards (Clinical Laboratories and Standards Institute. Methods for Dilution Antimicrobial Susceptibility Tests for Bacteria That Grow Aerobically; Approved Standard—Seventh Edition. Document M7-A7. CLSI, Wayne, Pa., 2006; Clinical Laboratories and Standards Institute. The Gram positive bacterial strains tested include S. aureus (Staphylococcus aureus (Isolate ID ATCC 29213)), E. faecalis (Enterococcus faecalis (Isolate ID ATCC 29212)) and S. pyogenes (Streptococcus pyogenes (Isolate ID ATCC 51339)). The Gram negative bacterial strains tested include H. influenzae (Haemophilus influenzae (Isolate ID ATCC 49247)).

SMILES	MIC (S. aureus (ATCC 29213)) [µg/mL]	MIC (E. faecalis (ATCC 29212)) [µg/mL]	MIC (S. pyogenes (ATCC 51339)) [µg/mL]	MIC [1] [µg/mL]
CCNC(=O)Nc1cc(Nc2cccc(F)c2)c(C(=O)Nc2ccc(CCC(=O)O)cc2)cn1 [Compound 221, 3-{4-[({6-[(ethylcarbamoyl)amino]-4-[(3-fluorophenyl)amino]pyridin-3-yl}carbonyl)amino]phenyl}propanoic acid]	≤ 1	≤ 1	≤ 1	≤ 1
CCNC(=O)Nc1cc(Nc2cccc(F)c2)c(C(=O)Nc2ccc(CC(C)(C)C(=O)O)cc2)cn1 [Compound 181, 3-{4-[({6-[(ethylcarbamoyl)amino]-4-[(3-fluorophenyl)amino]pyridin-3-yl}carbonyl)amino]phenyl}-2,2-dimethylpropanoic acid]	≤ 1	≤ 1	≤ 1	≤ 1
CCNC(=O)Nc1cc(Nc2ccc(Cl)cc2F)c(C(=O)Nc2ccc(CCC(=O)O)cc2)cn1 [Compound 224, 3-{4-[({4-[(4-chloro-2-fluorophenyl)amino]-6-[(ethylcarbamoyl)amino]pyridin-3-yl}carbonyl)amino]phenyl} propanoic acid]	≤ 1	≤ 1	≤ 1	≤ 1
CCNC(=O)Nc1cc(Nc2cc(Cl)cc(Cl)c2)c(C(=O)Nc2ccc(CCC(=O)O)cc2)cn1 [Compound 228, 3-{4-[({4-[(3,5-dichlorophenyl)amino]-6-[(ethylcarbamoyl)amino]pyridin-3-yl}carbonyl)amino]phenyl}propanoic acid]	≤ 1	≤ 1	≤ 1	≤ 1
CCNC(=O)Nc1cc(Nc2ccc(F)c(Cl)c2)c(C(=O)Nc2ccc(CCC(=O)O)cc2)cn1 [Compound 229, 3-{4-[({4-[(3-chloro-4-fluorophenyl)amino]-6-[(ethylcarbamoyl)amino]pyridin-3-yl}carbonyl)amino]phenyl}propanoic acid]	≤ 1	≤ 1	≤ 1	≤ 1
CCNC(=O)Nc1cc(Nc2ccnc(OC)c2)c(C(=O)Nc2ccc(CC(C)(C)C(=O)O)cc2)cn1 [Compound 187, 3-{4-[({6-[(ethylcarbamoyl)amino]-4-[(2-methoxypyridin-4-yl)amino]pyridin-3-yl}carbonyl)amino]phenyl}-2,2-dimethylpropanoic acid]	≤ 1	≤ 1		≤ 1
CCNC(=O)Nc1cc(Nc2ccccc2)c(C(=O)Nc2ccc(CS(=O)(=O)NC)cc2)cn1 [Compound 210, 6-[(ethylcarbamoyl)amino]-N-{4-[(methylsulfamoyl)methyl]phenyl}-4-(phenylamino)pyridine-3-carboxamide]	2 (≈ 4.14 µM)	≤ 1		4 (≈ 8.29 µM)
CCNC(=O)Nc1cc(Nc2ccc(F)c(F)c2)c(C(=O)Nc2ccc(CCC(=O)O)cc2)cn1 [Compound 220, 3-{4-[({4-[(3,4-difluorophenyl)amino]-6-[(ethylcarbamoyl)amino]pyridin-3-yl}carbonyl)amino]phenyl}propanoic acid]	≤ 1	≤ 1	≤ 1	≤ 1
CCNC(=O)Nc1cc(Nc2ccccc2)c(C(=O)Nc2ccc(S(N)(=O)=O)cc2)cn1 [Compound 231, 6-[(ethylcarbamoyl)amino]-4-(phenylamino)-N-(4-sulfamoylphenyl)pyridine-3-carboxamide]	4 (≈ 8.8 µM)	≤ 1		4 (≈ 8.8 µM)
CCNC(=O)Nc1cc(Nc2ccc(C#N)cc2)c(C(=O)Nc2ccc(CC(C)(C)C(=O)O)cc2)cn1 [Compound 188, 3-{4-[({4-[(4-cyanophenyl)amino]-6-[(ethylcarbamoyl)amino]pyridin-3-yl}carbonyl)amino]phenyl}-2,2-dimethylpropanoic acid]	≤ 1	≤ 1	≤ 1	≤ 1
CCNC(=O)Nc1cc(Nc2cc(F)c(F)c(F)c2)c(C(=O)Nc2ccc(CCC(=O)O)cc2)cn1 [Compound 189]	≤ 1	≤ 1	≤ 1	≤ 1
CCNC(=O)Nc1cc(Nc2ccc(C(=O)OC)cc2)c(C(=O)Nc2ccc(CC(C)(C)C(=O)O)cc2)cn1 [Compound 196]	≤ 1	≤ 1	≤ 1	≤ 1
CCNC(=O)Nc1cc(Nc2cccc(C(F)(F)F)c2)c(C(=O)Nc2ccc(CCC(=O)O)cc2)cn1 [Compound 240, 3-(4-{[(6-[(ethylcarbamoyl)amino]-4-{[3-(trifluoromethyl)phenyl]amino}pyridin-3-yl)carbonyl]amino}phenyl)propanoic acid]	≤ 1	≤ 1		≤ 1
CCNC(=O)Nc1cc(Nc2cc(F)cc(F)c2)c(C(=O)Nc2ccc(CCC(=O)O)cc2)cn1 [Compound 235, 3-{4-[({4-[(3,5-difluorophenyl)amino]-6-[(ethylcarbamoyl)amino]pyridin-3-yl}carbonyl)amino]phenyl}propanoic acid]	≤ 1	≤ 1	≤ 1	4 (≈ 8.27 µM)
CCNC(=O)Nc1cc(Nc2ccc(C)c(F)c2)c(C(=O)Nc2ccc(CCC(=O)O)cc2)cn1 [Compound 222, 3-{4-[({6-[(ethylcarbamoyl)amino]-4-[(3-fluoro-4-methylphenyl)amino]pyridin-3-yl}carbonyl)amino]phenyl}propanoic acid]	≤ 1	≤ 1		≤ 1
CCNC(=O)Nc1cc(Nc2ccc(C#N)cc2)c(C(=O)Nc2ccc(CN3CCOCC3)cc2)cn1 [Compound 204, 4-[(4-cyanophenyl)amino]-6-[(ethylcarbamoyl)amino]-N-[4-(morpholin-4-ylmethyl)phenyl]pyridine-3-carboxamide]	≤ 1	≤ 1		4 (≈ 8.01 µM)
CCNC(=O)Nc1cc(Nc2cc(F)cc(F)c2)c(C(=O)Nc2ccc(C3CC3C(=O)O)cc2)cn1 (stereo not shown) [Compound 238, 2-{4-[({4-[(3,5-difluorophenyl)amino]-6-[(ethylcarbamoyl)amino]pyridin-3-yl}carbonyl)amino]phenyl}cyclopropanecarboxylic acid]	≤ 1	≤ 1		≤ 1
